Results from patent US12054498B2, “Heteroaromatic macrocyclic ether chemotherapeutic agents” (Nuvalent, Inc., priority 2020, dated 2024).

Key:
Assay type in all cases: cell-based
[1] = target: T1, Ba/F3 cells CD74-ROS1 G2032R (Homo sapiens, UniProt P08922, G2032R); assay: Ba/F3 cell proliferation assay, CD74-ROS1 G2032R; settings: 72 hours, CellTiter-Glo
T1 construct: fusion of the C-terminus of ROS1 with the N-terminus of various partner proteins; host or cells: Ba/F3 (RIKEN), retroviral pMSCV-puro; the other entry of the earlier key: CD74 (P04233, HLA class II histocompatibility antigen gamma chain)
T1 sequence (P08922 1883-2347 G2032R limits assumed): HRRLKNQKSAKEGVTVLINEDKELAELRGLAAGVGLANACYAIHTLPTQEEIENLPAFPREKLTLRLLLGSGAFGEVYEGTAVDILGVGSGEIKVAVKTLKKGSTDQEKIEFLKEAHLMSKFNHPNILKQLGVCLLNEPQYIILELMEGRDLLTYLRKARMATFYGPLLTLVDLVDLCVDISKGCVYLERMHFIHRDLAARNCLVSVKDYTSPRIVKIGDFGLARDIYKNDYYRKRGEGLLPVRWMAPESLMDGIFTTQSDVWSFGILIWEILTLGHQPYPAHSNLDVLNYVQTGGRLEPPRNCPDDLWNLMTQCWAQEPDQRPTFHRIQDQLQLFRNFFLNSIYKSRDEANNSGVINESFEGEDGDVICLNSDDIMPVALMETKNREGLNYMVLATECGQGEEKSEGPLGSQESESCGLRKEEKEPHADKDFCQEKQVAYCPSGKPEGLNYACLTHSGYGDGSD
Method: (§1) The virus was used to infect Ba/F3 cells (RIKEN) at multiplicity of infection=1 for 1 day. Infected cells were rescued in media (RPMI-1640 with 10% fetal bovine serum and 1% streptomycin and penicillin) supplemented with mouse IL-3 (10 ng/mL) for 2 days, and stable cell lines were selected by IL-3 withdrawal and puromycin (0.8 μg/mL) for 7 days. Monoclones were selected by single-cell dilution in IL-3-free medium containing puromycin (0.8 μg/mL).
(§2) Cell Proliferation Assay Stable cells were plated at 1,000 cells/well (40 μL) in a 384-well plate for 1 day.
(§3) Test compounds (40 nL) were then added in a 3-fold dilution series using the TECAN EVO200 liquid handler and incubated for 72 hours. Plates were equilibrated at room temperature for 15 minutes followed by addition of 40 μL CellTiter-Glo reagent (Promega).
(§4) Luminescence was measured on a plate reader. Half-maximal inhibitory concentration (IC50) was calculated from percent inhibition and inhibitor concentration using four-parameter logistic regression. […] (nd=not determined).

[2] = system: TPM3-NTRK1-wt IC50 / primary target IC50 (e.g. CD74-ROS1-wt); assay: TRKA selectivity in Ba/F3 cells (TRKA potency divided by primary target potency); settings: for TPM3-NTRK1-wt/CD74-ROS1-G2032R selectivity ratio: TRKA potency / CD74-ROS1-G2032R potency; for TPM3-NTRK1-wt/EML4-ALK-L1196M-G1202R selectivity ratio: TRKA potency / EML4-ALK-L1196M-G1202R potency; for TPM3-NTRK1-wt/EML4-ALK-wt selectivity ratio: TRKA potency / EML4-ALK-wt potency; for TPM3-NTRK1-wt/CD74-ROS1-wt selectivity ratio: TRKA potency / CD74-ROS1-wt potency
Method: TRKA selectivity was calculated by dividing a compound's TRKA potency by its primary target potency (e.g. TPM3-NTRK1-wt IC50/CD74-ROS1-wt IC50). Compound selectivity can be interpreted by binning ratio values: bin A for very high selectivity, ratio >30-fold; bin B for high selectivity, ratio >10-fold; bin C for moderate selectivity, ratio ≥1; and bin D for low selectivity, ratio <1. […] (nd=not determined).

[3] = target: T2, Ba/F3 cells TPM3-TRKA (Homo sapiens, UniProt P04629); assay: Ba/F3 cell proliferation assay, TPM3-TRKA; settings: 72 hours, CellTiter-Glo, read-out: TPM3-NTRK1-wt IC50
T2 construct: host or cells: Ba/F3 (RIKEN), retroviral pMSCV-puro; the other entry of the earlier key: TPM3 (P06753, Tropomyosin alpha-3 chain)
T2 sequence (P04629 510-796 limits assumed): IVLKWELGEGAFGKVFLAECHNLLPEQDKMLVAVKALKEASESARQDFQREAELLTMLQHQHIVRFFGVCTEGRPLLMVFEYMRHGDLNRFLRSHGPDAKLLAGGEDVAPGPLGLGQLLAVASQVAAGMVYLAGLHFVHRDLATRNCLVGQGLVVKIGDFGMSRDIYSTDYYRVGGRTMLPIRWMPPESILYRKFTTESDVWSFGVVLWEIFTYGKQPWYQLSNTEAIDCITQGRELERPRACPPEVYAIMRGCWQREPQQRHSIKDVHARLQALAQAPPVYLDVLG
Text: (§5) Genes encoding CD74-ROS1 wild-type (wt), CD74-ROS1 G2032R, CD74-ROS1 S1986F, CD74-ROS1 L2026M, CD74-ROS1 D2033N, EML4-ALK wt (variant 1), EML4-ALK G1202R (variant 1), EML4-ALK L1196M/G1202R (variant 1), EML4-ALK G1202R/G1269A (variant 1), EML4-ALK G1202R/L1198F (variant 1), and TPM3-TRKA were synthesized at GeneRay, cloned into the retroviral construct pMSCV-puro (Biovector), and packaged into retroviral particles. The virus was used to infect Ba/F3 cells (RIKEN) at multiplicity of infection=1 for 1 day. Infected cells were rescued in media (RPMI-1640 with 10% fetal bovine serum and 1% streptomycin and penicillin) supplemented with mouse IL-3 (10 ng/mL) for 2 days, and stable cell lines were selected by IL-3 withdrawal and puromycin (0.8 μg/mL) for 7 days. Monoclones were selected by single-cell dilution in IL-3-free medium containing puromycin (0.8 μg/mL). Transformation of desired genes was confirmed by Sanger sequencing and western blot using the following antibodies: ROS1 (CST #3287), ALK (CST #3633), and pan-TRK (Abcam #76291).
as §2, §3, §4

[4] = target: T3, Ba/F3 cells EML4-ALK L1196M/G1202R (variant 1) (Homo sapiens, UniProt Q9UM73, G1202R/L1196M); assay: Ba/F3 cell proliferation assay, EML4-ALK L1196M/G1202R (variant 1); settings: 72 hours, CellTiter-Glo
T3 construct: echinoderm microtubule-associated protein-like 4 (EML4) gene and the ALK tyrosine kinase domain; host or cells: Ba/F3 (RIKEN), retroviral pMSCV-puro; the other entry of the earlier key: EML4 (Q9HC35, Echinoderm microtubule-associated protein-like 4)
T3 sequence (Q9UM73 with tags, fused parts or gaps L1196M/G1202R): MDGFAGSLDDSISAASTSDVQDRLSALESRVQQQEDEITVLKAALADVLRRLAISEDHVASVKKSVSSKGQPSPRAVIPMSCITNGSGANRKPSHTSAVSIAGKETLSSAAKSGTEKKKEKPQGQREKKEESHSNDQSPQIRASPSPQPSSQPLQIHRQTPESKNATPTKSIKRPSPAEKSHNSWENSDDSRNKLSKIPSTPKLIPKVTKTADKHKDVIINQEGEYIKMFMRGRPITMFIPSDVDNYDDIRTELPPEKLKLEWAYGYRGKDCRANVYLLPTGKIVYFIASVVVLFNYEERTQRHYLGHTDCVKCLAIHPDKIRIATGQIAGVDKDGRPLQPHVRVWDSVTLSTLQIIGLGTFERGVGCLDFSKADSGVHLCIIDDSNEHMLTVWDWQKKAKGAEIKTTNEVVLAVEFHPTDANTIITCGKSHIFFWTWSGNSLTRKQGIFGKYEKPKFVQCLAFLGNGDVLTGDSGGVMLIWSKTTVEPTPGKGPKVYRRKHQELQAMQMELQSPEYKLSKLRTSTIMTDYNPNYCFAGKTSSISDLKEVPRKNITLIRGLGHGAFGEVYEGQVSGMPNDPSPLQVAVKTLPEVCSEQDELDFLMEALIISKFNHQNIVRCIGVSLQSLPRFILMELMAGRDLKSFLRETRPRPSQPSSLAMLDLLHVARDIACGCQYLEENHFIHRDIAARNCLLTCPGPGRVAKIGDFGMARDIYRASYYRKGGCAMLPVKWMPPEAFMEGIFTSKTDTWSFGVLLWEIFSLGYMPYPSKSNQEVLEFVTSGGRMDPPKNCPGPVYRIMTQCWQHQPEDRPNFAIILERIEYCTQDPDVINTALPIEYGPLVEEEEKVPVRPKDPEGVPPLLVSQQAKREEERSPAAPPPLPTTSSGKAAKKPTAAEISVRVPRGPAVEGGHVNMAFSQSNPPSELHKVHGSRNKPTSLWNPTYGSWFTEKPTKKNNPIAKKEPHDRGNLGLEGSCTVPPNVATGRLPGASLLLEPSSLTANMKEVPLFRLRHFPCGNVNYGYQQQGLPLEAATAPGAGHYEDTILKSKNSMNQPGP
Text: as §5, §2, §3, §4

[5] = target: T4, Ba/F3 cells EML4-ALK wt (variant 1) (Homo sapiens, UniProt Q9UM73); assay: Ba/F3 cell proliferation assay, EML4-ALK wt (variant 1); settings: 72 hours, CellTiter-Glo
T4 construct: echinoderm microtubule-associated protein-like 4 (EML4) gene and the ALK tyrosine kinase domain; host or cells: Ba/F3 (RIKEN), retroviral pMSCV-puro; the other entry of the earlier key: EML4 (Q9HC35, Echinoderm microtubule-associated protein-like 4)
T4 sequence (Q9UM73 with tags, fused parts or gaps): as the sequence (Q9UM73 with tags, fused parts or gaps L1196M/G1202R) above, with M635L, R641G counted along it
Text: as §5, §2, §3, §4

[6] = target: T5, Ba/F3 cells CD74-ROS1 wild-type (wt) (Homo sapiens, UniProt P08922); assay: Ba/F3 cell proliferation assay, CD74-ROS1 wild-type; settings: 72 hours, CellTiter-Glo
T5 construct: fusion of the C-terminus of ROS1 with the N-terminus of various partner proteins; host or cells: Ba/F3 (RIKEN), retroviral pMSCV-puro; the other entry of the earlier key: CD74 (P04233, HLA class II histocompatibility antigen gamma chain)
T5 sequence (P08922 1883-2347 limits assumed): as the sequence (P08922 1883-2347 G2032R limits assumed) above, with R150G counted along it
Method: as §1, §2, §3, §4

| IC50 [1] | IC50 [3] | IC50 [4] | IC50 [5] | IC50 [6] | Structure (SMILES) | TPM3-NTRK1-wt/CD74-ROS1-G2032R selectivity ratio [2] | TPM3-NTRK1-wt/EML4-ALK-L1196M-G1202R selectivity ratio [2] | TPM3-NTRK1-wt/EML4-ALK-wt selectivity ratio [2] | TPM3-NTRK1-wt/CD74-ROS1-wt selectivity ratio [2] |
| --- | --- | --- | --- | --- | --- | --- | --- | --- | --- |
| 0.1 to 50 nM | 50 to 500 nM | 0.1 to 50 nM | 0.1 to 50 nM | – | CCn1ncc2c1-c1cnc(N)c(c1)O[C@H](C)c1cc(F)ccc1-c1ncn(C)c1C2 [Example 6, (19R)-3-ethyl-16-fluoro-9,19-dimethyl-20-oxa-3,4,9,11,23-pentaazapentacyclo[19.3.1.0^2,^6.0^8,^12.0^13,^18]pentacosa-1(24),2(6),4,8(12),10,13,15,17,21(25),22-decaen-22-amine] | A (bin A for very high selectivity, ratio >30-fold) | C (bin C for moderate selectivity, ratio ≥1) | A (bin A for very high selectivity, ratio >30-fold) | – |
| 0.1 to 50 nM | > 500 nM | 50 to 500 nM | – | – | CCn1ncc2c1-c1cnc(N)c(c1)O[C@H](C)c1cc(F)ccc1-c1c(ncn1C)C2 [Example 11, (19R)-3-ethyl-16-fluoro-11,19-dimethyl-20-oxa-3,4,9,11,23-pentaazapentacyclo[19.3.1.0^2,^6.0^8,^12.0^13,^18]pentacosa-1(24),2(6),4,8(12),9,13,15,17,21(25),22-decaen-22-amine] | A (bin A for very high selectivity, ratio >30-fold) | B (bin B for high selectivity, ratio >10-fold) | – | – |
| 50 to 500 nM | > 500 nM | > 500 nM | 50 to 500 nM | 0.1 to 50 nM | CCn1ncc2c1-c1cnc(N)c(c1)OCc1cc(F)ccc1-c1ccnn1C2 [Example 17, 3-ethyl-16-fluoro-20-oxa-3,4,8,9,23-pentaazapentacyclo[19.3.1.0^2,^6.0^8,^12.0^13,^18]pentacosa-1(24),2(6),4,9,11,13,15,17,21(25),22-decaen-22-amine] | A (bin A for very high selectivity, ratio >30-fold) | C (bin C for moderate selectivity, ratio ≥1) | B (bin B for high selectivity, ratio >10-fold) | A (bin A for very high selectivity, ratio >30-fold) |
| 0.1 to 50 nM | > 500 nM | 50 to 500 nM | 0.1 to 50 nM | – | CCn1ncc2c1-c1cnc(N)c(c1)O[C@H](C)c1cc(F)ccc1-c1c(Cl)cnn1C2 [Example 27, (19R)-11-chloro-3-ethyl-16-fluoro-19-methyl-20-oxa-3,4,8,9,23-pentaazapentacyclo[19.3,1.0^2,^6.0^8,^12.0^13,^18]pentacosa-1(24),2(6),4,9,11,13,15,17,21(25),22-decaen-22-amine] | A (bin A for very high selectivity, ratio >30-fold) | C (bin C for moderate selectivity, ratio ≥1) | B (bin B for high selectivity, ratio >10-fold) | – |
| 0.1 to 50 nM | 50 to 500 nM | 50 to 500 nM | – | – | CCc1onc2c1-c1cnc(N)c(c1)O[C@H](C)c1cc(F)ccc1-c1nn(C)nc1C2 [Example 31, (19R)-3ethyl-16-fluoro-10,19-dimethyl-4,20-dioxa-5,9,10,11,23-pentaazapentacyclo[19.3.1.0^2,^6.0^8,^12.0^13,^18]pentacosa-1(24),2,5,8,11,13,15,17,21(25),22-decaen-22-amine] | A (bin A for very high selectivity, ratio >30-fold) | C (bin C for moderate selectivity, ratio ≥1) | – | – |
| 0.1 to 50 nM | 50 to 500 nM | 50 to 500 nM | 0.1 to 50 nM | 0.1 to 50 nM | CCn1nc(OC)c2c1-c1cnc(N)c(c1)O[C@H](C)c1cc(F)ccc1-c1cc(C)nn1C2 [Example 32, (19R)-3-ethyl-16-fluoro-5-methoxy-10,19-dimethyl-20-oxa-3,4,8,9,23-pentaazapentacyclo[19.3.1.0^2,^6.0^8,^12.0^13,^18]pentacosa-1(24),2(6),4,9,11,13,15,1 7,21(25),22-decaen-22-amine] | A (bin A for very high selectivity, ratio >30-fold) | C (bin C for moderate selectivity, ratio ≥1) | B (bin B for high selectivity, ratio >10-fold) | A (bin A for very high selectivity, ratio >30-fold) |
| 0.1 to 50 nM | > 500 nM | 50 to 500 nM | 50 to 500 nM | 0.1 to 50 nM | CCn1nc(Cl)c2c1-c1cnc(N)c(c1)O[C@H](C)c1cc(F)ccc1-c1ncnn1C2 [Example 43, (19R)-5-chloro-3-ethyl-16-fluoro-19-methyl-20-oxa-3,4,8,9,11,23-hexaazapentacyclo[19.3.1.0^2,^6.0^8,^12.0^13,^18]pentacosa-1(24),2,(6),4,9,11,13,15,17,21(25),22-decaen-22-amine] | A (bin A for very high selectivity, ratio >30-fold) | C (bin C for moderate selectivity, ratio ≥1) | B (bin B for high selectivity, ratio >10-fold) | A (bin A for very high selectivity, ratio >30-fold) |
| 0.1 to 50 nM | > 500 nM | 50 to 500 nM | – | – | C[C@H]1Oc2cc(cnc2N)-c2c(C#N)nn(C)c2Cc2ncsc2-c2ccc(F)cc21 [Example 57, (19R)-22-amino-16-fluoro-5,19-dimethyl-20-oxa-11-thia-4,5,9,23-tetraazapentacyclo[19.3.1.0^2,^6.0^8,^12.0^13,^18]pentacosa-1(24),2(6),3,8(12),9,13,15,17,21(25),22-decaene-3-carbonitrile] | A (bin A for very high selectivity, ratio >30-fold) | C (bin C for moderate selectivity, ratio ≥1) | – | – |
| 0.1 to 50 nM | > 500 nM | 50 to 500 nM | – | – | Cc1nc2c(s1)-c1ccc(F)cc1[C@@H](C)Oc1cc(cnc1N)-c1c(C#N)nn(C)c1C2 [Example 68, (19R)-22-amino-16-fluoro-5,10,19-trimethyl-20-oxa-11-thia-4,5,9,23-tetraazapentacyclo[19.3.1.0^2,^6.0^8,^12.0^13,^18]pentacosa-1(24),2(6),3,8(12),9,13,15,17,21(25),22-decaene-3-carbonitrile] | A (bin A for very high selectivity, ratio >30-fold) | C (bin C for moderate selectivity, ratio ≥1) | – | – |
| 0.1 to 50 nM | > 500 nM | 0.1 to 50 nM | 0.1 to 50 nM | – | Cc1nn(CC2CC2)c2c1Cc1nccnc1-c1ccc(F)cc1[C@@H](C)Oc1cc-2cnc1N [Example 77, (20R)-3-(cyclopropylmethyl)-17-fluoro-5,20-dimethyl-21-oxa-3,4,9,12,24-pentaazapentacyclo[20.3.1.0^2,^6.0^8,^13.0^14,^19]hexacosa-1(25),2(6),4,8(13),9,11,14,16,18,22(26),23-undecaen-23-amine] | A (bin A for very high selectivity, ratio >30-fold) | A (bin A for very high selectivity, ratio >30-fold) | A (bin A for very high selectivity, ratio >30-fold) | – |
